Converted amounts (≈) assume the structure as drawn.
How the values were obtained:
Format in all cases: functional
Staphylococcus aureus [1] = experiment: Antibacterial activity against linezolid-resistant Staphylococcus aureus by microbroth dilution method
Streptococcus pneumoniae = experiment: Antibacterial activity against Streptococcus pneumoniae 55143 by microbroth dilution method
Staphylococcus aureus [2] = experiment: Antibacterial activity against Staphylococcus aureus ATCC 33591 by microbroth dilution method
Staphylococcus aureus [3] = experiment: Antibacterial activity against Staphylococcus aureus ATCC 29213 by microbroth dilution method
Staphylococcus aureus [4] = experiment: Antibacterial activity against methicillin-resistant Staphylococcus aureus 1201984 by microbroth dilution method
Streptococcus pyogenes = experiment: Antibacterial activity against Streptococcus pyogenes ATCC 19615 by microbroth dilution method
Haemophilus influenzae = experiment: Antibacterial activity against Haemophilus influenzae ATCC 49247 by microbroth dilution method
Staphylococcus aureus [5] = experiment: Antibacterial activity against Staphylococcus aureus ATCC 6538P by microbroth dilution method
Enterococcus faecalis = experiment: Antibacterial activity against Enterococcus faecalis ATCC 29212 by microbroth dilution method
[6] = tested on: Staphylococcus epidermidis; experiment: Antibacterial activity against Staphylococcus epidermidis ATCC 14990 by microbroth dilution method
Enterococcus faecium = experiment: Antibacterial activity against Enterococcus faecium 19434 by microbroth dilution method

SMILES | MIC (Staphylococcus aureus [1]) [µg/mL] | MIC (Streptococcus pneumoniae) [µg/mL] | MIC (Staphylococcus aureus [2]) [µg/mL] | MIC (Staphylococcus aureus [3]) [µg/mL] | MIC (Staphylococcus aureus [4]) [µg/mL] | MIC (Streptococcus pyogenes) [µg/mL] | MIC (Haemophilus influenzae) [µg/mL] | MIC (Staphylococcus aureus [5]) [µg/mL] | MIC (Enterococcus faecalis) [µg/mL] | MIC [6] [µg/mL] | MIC (Enterococcus faecium) [µg/mL]
CC(=S)NC[C@H]1CN(c2ccc(-c3ccc4c(c3)NC(=O)CO4)c(F)c2)C(=O)O1 | 0.125 (≈ 0.301 µM) | 0.06 (≈ 0.144 µM) | 0.125 (≈ 0.301 µM) | 0.06 (≈ 0.144 µM) | 0.06 (≈ 0.144 µM) | 0.06 (≈ 0.144 µM) | 0.125 (≈ 0.301 µM) | 0.06 (≈ 0.144 µM) | 0.06 (≈ 0.144 µM) | 0.06 (≈ 0.144 µM) | 0.06 (≈ 0.144 µM)
O=C1NCCOc2ccc(-c3ccc(N4C[C@H](CO)OC4=O)cc3F)cc21 | 4 (≈ 10.7 µM) | 0.5 (≈ 1.34 µM) | 1 (≈ 2.69 µM) | 0.5 (≈ 1.34 µM) | 0.5 (≈ 1.34 µM) | 0.5 (≈ 1.34 µM) | 1 (≈ 2.69 µM) | 0.25 (≈ 0.671 µM) | 0.5 (≈ 1.34 µM) | 0.25 (≈ 0.671 µM) | 0.5 (≈ 1.34 µM)
O=C1Cc2ccc(-c3ccc(N4C[C@H](CO)OC4=O)cc3F)cc2N1 | 4 (≈ 11.7 µM) | 0.125 (≈ 0.365 µM) | 32 (≈ 93.5 µM) | 1 (≈ 2.92 µM) | 32 (≈ 93.5 µM) | 0.125 (≈ 0.365 µM) | 2 (≈ 5.84 µM) | 0.25 (≈ 0.73 µM) | 0.25 (≈ 0.73 µM) | < 0.06 | 0.25 (≈ 0.73 µM)
O=C1COc2cccc(-c3ccc(N4C[C@H](CO)OC4=O)cc3F)c2N1 | > 32 | > 32 | > 32 | > 32 | > 32 | > 32 | > 32 | > 32 | > 32 | > 32 | > 32
O=C1O[C@@H](CO)CN1c1ccc(-c2ccc3oc(=O)[nH]c3c2)c(F)c1 | 4 (≈ 11.6 µM) | 0.125 (≈ 0.363 µM) | 32 (≈ 92.9 µM) | 1 (≈ 2.9 µM) | 32 (≈ 92.9 µM) | 0.125 (≈ 0.363 µM) | 4 (≈ 11.6 µM) | 0.25 (≈ 0.726 µM) | 0.5 (≈ 1.45 µM) | < 0.06 | 0.25 (≈ 0.726 µM)
CN[C@H](CC(C)C)C(=O)N[C@H]1C(=O)N[C@@H](CC(N)=O)C(=O)N[C@H]2C(=O)N[C@H]3C(=O)N[C@H](C(=O)N[C@H](C(=O)O)c4cc(O)cc(O)c4-c4cc3ccc4O)[C@H](O)c3ccc(c(Cl)c3)Oc3cc2cc(c3O[C@@H]2O[C@H](CO)[C@@H](O)[C@H](O)[C@H]2O[C@H]2C[C@](C)(N)[C@H](O)[C@H](C)O2)Oc2ccc(cc2Cl)[C@H]1O [VANCOMYCIN] |  | 2 (≈ 1.38 µM) |  |  |  | 2 (≈ 1.38 µM) |  |  | 2 (≈ 1.38 µM) |  | 
O=C1O[C@@H](CO)CN1c1ccc(-c2cnc3ccc(=O)[nH]c3c2)c(F)c1 | 8 (≈ 22.5 µM) | 0.25 (≈ 0.704 µM) | 0.25 (≈ 0.704 µM) | 0.5 (≈ 1.41 µM) | 16 (≈ 45 µM) | 0.25 (≈ 0.704 µM) | 0.5 (≈ 1.41 µM) | 0.25 (≈ 0.704 µM) | 0.5 (≈ 1.41 µM) | 0.25 (≈ 0.704 µM) | 0.125 (≈ 0.352 µM)
O=C1COc2ccc(-c3ccc(N4C[C@H](CNC(=O)C(F)F)OC4=O)cc3F)cc2N1 | 4 (≈ 9.19 µM) | 0.25 (≈ 0.574 µM) | 0.5 (≈ 1.15 µM) | 0.5 (≈ 1.15 µM) | 0.5 (≈ 1.15 µM) | 0.25 (≈ 0.574 µM) | 0.5 (≈ 1.15 µM) | 0.125 (≈ 0.287 µM) | 0.06 (≈ 0.138 µM) | 0.125 (≈ 0.287 µM) | 0.06 (≈ 0.138 µM)
O=C1COc2ccc(-c3ccc(N4C[C@H](CNC(=O)C5CC5)OC4=O)cc3F)cc2N1 | 4 (≈ 9.4 µM) | 0.5 (≈ 1.18 µM) | 1 (≈ 2.35 µM) | 1 (≈ 2.35 µM) | 1 (≈ 2.35 µM) | 0.5 (≈ 1.18 µM) | 1 (≈ 2.35 µM) | 0.25 (≈ 0.588 µM) | 0.25 (≈ 0.588 µM) | 0.25 (≈ 0.588 µM) | 0.125 (≈ 0.294 µM)
Cc1nc2ccc(-c3ccc(N4C[C@H](CO)OC4=O)cc3F)cc2c(=O)[nH]1 | 2 (≈ 5.41 µM) | 0.25 (≈ 0.677 µM) | 0.5 (≈ 1.35 µM) | 0.25 (≈ 0.677 µM) | 0.25 (≈ 0.677 µM) | 0.25 (≈ 0.677 µM) | 0.5 (≈ 1.35 µM) | 0.125 (≈ 0.338 µM) | 0.5 (≈ 1.35 µM) | 0.125 (≈ 0.338 µM) | 0.25 (≈ 0.677 µM)
O=C1COc2ccc(-c3ccc(N4C[C@H](CO)OC4=O)cc3F)nc2N1 | 4 (≈ 11.1 µM) | 0.25 (≈ 0.696 µM) | 0.125 (≈ 0.348 µM) | 0.5 (≈ 1.39 µM) | 0.25 (≈ 0.696 µM) | 0.25 (≈ 0.696 µM) | 1 (≈ 2.78 µM) | 0.125 (≈ 0.348 µM) | 0.25 (≈ 0.696 µM) | < 0.06 | 0.25 (≈ 0.696 µM)
CC(=O)NC[C@H]1CN(c2ccc(N3CCOCC3)c(F)c2)C(=O)O1 [LINEZOLID] | 16 (≈ 47.4 µM) |  | 1 (≈ 2.96 µM) |  | 1 (≈ 2.96 µM) | 0.5 (≈ 1.48 µM) | 4 (≈ 11.9 µM) | 1 (≈ 2.96 µM) |  |  | 2 (≈ 5.93 µM)
O=C1COc2c(cccc2-c2ccc(N3C[C@H](CO)OC3=O)cc2F)N1 | > 32 | 8 (≈ 22.3 µM) | 4 (≈ 11.2 µM) | 2 (≈ 5.58 µM) | 8 (≈ 22.3 µM) | 8 (≈ 22.3 µM) | 1 (≈ 2.79 µM) | 8 (≈ 22.3 µM) | 16 (≈ 44.7 µM) | 2 (≈ 5.58 µM) | 32 (≈ 89.3 µM)

— ChEMBL document CHEMBL4130562, “Design, Synthesis, and Antibacterial Evaluation of Oxazolidinones with Fused Heterocyclic C-Ring Substructure” (ACS Med Chem Lett, 2017)
